One experiment deals with Rhizoctonia solani AG-1. The experiment can be described thus: Fungicidal activity against Rice Sheath Blight (RSB) disease. The note with it: Rice Sheath Blight.
Another experiment relates to Botrytis cinerae. The experiment in a line: Fungicidal activity against Cucumber Gray Mold Rot (CGM) disease. The note with it: Cucumber Gray Mold Rot; concentration 50 ppm. It is filed as in vivo. As for the experimental part: Botrytis cinerae, which was isolated from cucumber infected thereby, was inoculated on a PDA agar medium and cultured under a 12L/12D cycle at 25° C. for 15 days to form spore. The spores were scraped, filtered through a gauze and then suspended in potato dextrose liquid medium at a concentration of 1×10^6 spore/ml. The spore suspension was sprayed on a cucumber plant having one leaf. The cucumber plant was held in a humidified room at 20° C. for 3 days. L.A. on a leaf was measured to calculate an C.V.

The subject of a further experiment is Phytophthora infestans. Format: in vivo. The conditions noted are these: Tomato Late Blight.
A further experiment deals with Erysiphae graminis. The experiment can be described thus: Fungicidal activity against Barley Powdery Mildew (BPM) disease. It is filed as in vivo. The conditions noted are these: Barley Powdery Mildew.
A further experiment concerns Puccinia recondita. The experiment in a line: Fungicidal activity against Wheat Leaf Rust (WLR) disease. Format: in vivo. The note with it: Wheat Leaf Rust.
In experiment [1] the test system is Pyricularia oryzae Carvara KA301. Format: in vivo. The note with it: Rice Blast.

Like-named read-outs stand apart in the source and are kept apart here.

In the case of `CON=C(C(=O)OC)c1ccccc1CON=Cc1cccc(OC(F)=Cc2ccc(F)cc2)c1` [Compound 27], the “RSB (Fungicidal Activities, C.V.)” value with Rhizoctonia solani AG-1 (concentration 50 ppm) is listed as 25%. The “CGM (Fungicidal Activities, C.V.)” value with Botrytis cinerae was determined as 0%. The “TLB (Fungicidal Activities, C.V.)” value with Phytophthora infestans (concentration 50 ppm) was 69%. Also, in the experiment with Erysiphae graminis (concentration 50 ppm), the “BPM (Fungicidal Activities, C.V.)” value worked out at 91%. Moreover, in the experiment on Puccinia recondita (concentration 50 ppm), the “WLR (Fungicidal Activities, C.V.)” value amounted to 86%. Besides, the “RCV (Fungicidal Activities, C.V.)” value in experiment [1] (concentration 50 ppm) worked out at 100%.

Take `CON=C(C(=O)OC)c1ccccc1CON=Cc1cccc(OC(F)=Cc2ccc(Cl)cc2)c1` [Compound 28]: the results for the “RSB (Fungicidal Activities, C.V.)” value with Rhizoctonia solani AG-1 (concentration 2 ppm) and with Rhizoctonia solani AG-1 (concentration 50 ppm) were 0% and 50%, respectively. The “CGM (Fungicidal Activities, C.V.)” value with Botrytis cinerae is listed as 9%. For the same compound, the “TLB (Fungicidal Activities, C.V.)” value is given as 50% in the experiment with Phytophthora infestans (concentration 2 ppm) and 38% in the experiment on Phytophthora infestans (concentration 50 ppm). Besides, the “BPM (Fungicidal Activities, C.V.)” value came out at 86% in the experiment on Erysiphae graminis (concentration 2 ppm) and 95% in the experiment with Erysiphae graminis (concentration 50 ppm). Also, the “WLR (Fungicidal Activities, C.V.)” value was 97% in the experiment on Puccinia recondita (concentration 2 ppm) and 100% with Puccinia recondita (concentration 50 ppm). Also, the “RCV (Fungicidal Activities, C.V.)” value in experiment [1] (concentration 2 ppm) worked out at 66%; in experiment [1] (concentration 50 ppm) it was 99%.

`CON=C(C(=O)OC)c1ccccc1CON=Cc1cccc(OC(F)=Cc2ccc3c(c2)OCO3)c1` [Compound 29]: the figures for the “RSB (Fungicidal Activities, C.V.)” value in the experiment with Rhizoctonia solani AG-1 (concentration 2 ppm) and in the experiment with Rhizoctonia solani AG-1 (concentration 50 ppm) were 20% and 35%, respectively. Besides, in the experiment with Botrytis cinerae, the “CGM (Fungicidal Activities, C.V.)” value came to 0%. Also, the “TLB (Fungicidal Activities, C.V.)” value in the experiment with Phytophthora infestans (concentration 2 ppm) is given as 78%; in the experiment on Phytophthora infestans (concentration 50 ppm), 84%. Also, the “BPM (Fungicidal Activities, C.V.)” value in the experiment with Erysiphae graminis (concentration 2 ppm) turned out to be 41%; in the experiment on Erysiphae graminis (concentration 50 ppm), 80%. Moreover, the “WLR (Fungicidal Activities, C.V.)” value with Puccinia recondita (concentration 2 ppm) turned out to be 96%; in the experiment on Puccinia recondita (concentration 50 ppm), 88%. Besides, the entries for the “RCV (Fungicidal Activities, C.V.)” value in experiment [1] (concentration 2 ppm) and in experiment [1] (concentration 50 ppm) were 93% and 100%, respectively.

In the case of `CNC(=O)C(=NOC)c1ccccc1CON=Cc1cccc(OC(F)=Cc2cccc(C)c2)c1` [Compound 31], the “RSB (Fungicidal Activities, C.V.)” value with Rhizoctonia solani AG-1 (concentration 50 ppm) came out at 52%. Also, the “CGM (Fungicidal Activities, C.V.)” value with Botrytis cinerae turned out to be 25%. The “TLB (Fungicidal Activities, C.V.)” value with Phytophthora infestans (concentration 50 ppm) was 8%. Further, the “BPM (Fungicidal Activities, C.V.)” value in the experiment on Erysiphae graminis (concentration 2 ppm) was determined as 8%; in the experiment on Erysiphae graminis (concentration 50 ppm), 100%. Moreover, the “WLR (Fungicidal Activities, C.V.)” value in the experiment with Puccinia recondita (concentration 2 ppm) stood at 83%; with Puccinia recondita (concentration 50 ppm) it was 100%. Also, the “RCV (Fungicidal Activities, C.V.)” value in experiment [1] (concentration 2 ppm) was found to be 97%; in experiment [1] (concentration 50 ppm), 100%.

`CNC(=O)C(=NOC)c1ccccc1CON=Cc1cccc(OC(F)=Cc2ccc(C)c(C)c2)c1` [Compound 32]: in the experiment with Rhizoctonia solani AG-1 (concentration 50 ppm), the “RSB (Fungicidal Activities, C.V.)” value worked out at 41%. For the same compound, the “CGM (Fungicidal Activities, C.V.)” value with Botrytis cinerae is reported as 8%. In addition, the “TLB (Fungicidal Activities, C.V.)” value in the experiment on Phytophthora infestans (concentration 50 ppm) was found to be 0%. Also, the “BPM (Fungicidal Activities, C.V.)” value with Erysiphae graminis (concentration 2 ppm) stood at 0%; with Erysiphae graminis (concentration 50 ppm), 100%. The “WLR (Fungicidal Activities, C.V.)” value with Puccinia recondita (concentration 2 ppm) is 3%; in the experiment with Puccinia recondita (concentration 50 ppm) it was 99%. Further, the “RCV (Fungicidal Activities, C.V.)” value in experiment [1] (concentration 2 ppm) is 99%; in experiment [1] (concentration 50 ppm) it was 100%.

With `CCc1ccc(C=C(F)Oc2cccc(C=NOCc3ccccc3C(=NOC)C(=O)NC)c2)cc1` [Compound 33], in the experiment with Rhizoctonia solani AG-1 (concentration 50 ppm), the “RSB (Fungicidal Activities, C.V.)” value is reported as 17%. The “CGM (Fungicidal Activities, C.V.)” value in the experiment on Botrytis cinerae amounted to 0%. The “TLB (Fungicidal Activities, C.V.)” value in the experiment on Phytophthora infestans (concentration 50 ppm) worked out at 0%. The “BPM (Fungicidal Activities, C.V.)” value is 0% in the experiment with Erysiphae graminis (concentration 2 ppm) and 100% in the experiment with Erysiphae graminis (concentration 50 ppm). Also, the results for the “WLR (Fungicidal Activities, C.V.)” value with Puccinia recondita (concentration 2 ppm) and with Puccinia recondita (concentration 50 ppm) were 10% and 96%, respectively. The “RCV (Fungicidal Activities, C.V.)” value in experiment [1] (concentration 2 ppm) was 97%; in experiment [1] (concentration 50 ppm) it was 96%.

Turning to `CNC(=O)C(=NOC)c1ccccc1CON=Cc1cccc(OC(F)=Cc2cccc(OC)c2)c1` [Compound 35], the “RSB (Fungicidal Activities, C.V.)” value with Rhizoctonia solani AG-1 (concentration 50 ppm) was determined as 52%. The “CGM (Fungicidal Activities, C.V.)” value in the experiment with Botrytis cinerae was 0%. In the experiment on Phytophthora infestans (concentration 50 ppm), the “TLB (Fungicidal Activities, C.V.)” value was determined as 0%. For the same compound, the “BPM (Fungicidal Activities, C.V.)” value in the experiment with Erysiphae graminis (concentration 2 ppm) is reported as 0%; with Erysiphae graminis (concentration 50 ppm), 100%. The “WLR (Fungicidal Activities, C.V.)” value in the experiment with Puccinia recondita (concentration 2 ppm) is reported as 83%; in the experiment with Puccinia recondita (concentration 50 ppm) it was 97%. For the same compound, the “RCV (Fungicidal Activities, C.V.)” value amounted to 97% in experiment [1] (concentration 2 ppm) and 100% in experiment [1] (concentration 50 ppm).

Values taken from patent US6552080B1, “Fungicidal compounds having a fluorovinyl-or fluoropropenyl-oxyphenyloxime moiety and process for the preparation thereof” (Korea Research Institute of Chemical Technology, priority 1999, dated 2003).
